We go through nine molecules from patent publication US20220249447A1, “CF3-, OCF3-, SCF3-, and SF5-Containing Antibacterial Agents” (Purdue Research Foundation, priority 2019, published 2022).

What is called MIC is the lowest concentration that inhibits growth of the organism.

In experiment [1] the test system is Neisseria gonorrhea strain 181. The experiment in a line: MIC against Neisseria gonorrhea strain 181. Type of experiment: cell-based. As for the experimental part: (§1) Bacteria were cultured in cation-adjusted Mueller Hinton Broth (for strains in Tables 1-3) or Brain Heart Infusion broth (for Enterococcus faecium) or Tryptic Soy Broth (all other bacteria) in a 96-well plate at 37° C. for at least 20 hours. The MIC was classified as the lowest concentration where no visual growth of bacteria was observed. The minimum bactericidal concentration (MBC) was tested by spotting 4 μL from wells with no growth onto Tryptic Soy Agar (TSA) plates. Plates were incubated at 37° C. for at least 18 hours before recording the MBC.

Experiment [2] concerns C. difficile ATCC BAA 1801. The experiment in a line: MIC against C. difficile ATCC BAA 1801. Type of experiment: cell-based. Particulars: Clostridioides difficile, BAA1801; read-out: MIC C. difficile ATCC BAA 1801. As for the experimental part: as §1
Experiment [3] concerns S. aureus. The experiment in a line: MIC, broth microdilution, S. aureus. The class given is cell-based. Particulars: Staphylococcus aureus. As for the experimental part: as §1
In general terms: Broth dilution looks for growth in wells or tubes with falling amounts of substance.

For experiment [4], the system named is MRSA ATCC 33592. The experiment in a line: MIC, broth microdilution, MRSA ATCC 33592. The class given is cell-based, methicillin-resistant S. aureus. Conditions: Staphylococcus aureus. As for the experimental part: All MRSA isolates were acquired from BEI Resources. The remaining bacteria were purchased from the American Type Culture Collection (ATCC).
as §1

SMILES strings stand for the structures. Converted amounts (≈) assume the structure as drawn. Where only a bound is given, the exact number is not on record here.

Turning to `CC[C@H]1OC(=O)[C@H](C)[C@@H](O[C@H]2C[C@@](C)(OC)[C@@H](O)[C@H](C)O2)[C@H](C)[C@@H](O[C@@H]2O[C@H](C)C[C@H](N(C)C)[C@H]2O)[C@](C)(O)C[C@@H](C)CN(C)[C@H](C)[C@@H](O)[C@]1(C)O` [Azithromycin, reference compound], the MIC in experiment [1] was 256 mg/L (≈ 342 µM).
As to `O=C(Nc1nnc(-c2cccc(Cl)c2)o1)c1ccc(SC(F)(F)F)nc1` [HSGN-247, N-(5-(3-chlorophenyl)-1,3,4-oxadiazol-2-yl)-6-((trifluoromethyl)thio)nicotinamide], the MIC was 0.015 mg/L (≈ 0.0374 µM) in experiment [2], 0.125 mg/L (≈ 0.312 µM) in experiment [1], 0.5 mg/L (≈ 1.25 µM) in experiment [3] and 0.5 mg/L (≈ 1.25 µM) in experiment [4].
With `O=C(Nc1nnc(-c2ccc(Cl)cc2Cl)o1)c1ccc(SC(F)(F)F)cc1` [HSGN-248, N-(5-(2,4-dichlorophenyl)-1,3,4-oxadiazol-2-yl)-4-((trifluoromethyl)thio)benzamide], the MIC is 0.015 mg/L (≈ 0.0345 µM) in experiment [2], more than 128 mg/L in experiment [1], 0.5 mg/L (≈ 1.15 µM) in experiment [3] and 0.25 mg/L (≈ 0.576 µM) in experiment [4].
As to `O=C(Nc1nnc(-c2cccc(C(F)(F)F)c2)o1)c1ccc(SC(F)(F)F)cc1` [HSGN-253, N-(5-(3-(trifluoromethyl)phenyl)-1,3 ,4-oxadiazol-2-yl)-4-((trifluoromethyl)thio)benzamide], the results for the MIC in experiment [1], in experiment [3] and in experiment [4] were 2 mg/L (≈ 4.62 µM), 0.25 mg/L (≈ 0.577 µM) and 0.125 mg/L (≈ 0.288 µM), respectively.
`O=C(Nc1nnc(-c2cccc(Cl)c2)o1)c1ccc(S(F)(F)(F)(F)F)cc1` [HSGN-259, N-(5-(3-chlorophenyl)-1,3,4-oxadiazol-2-yl)-4-(pentafluoro-k6-sulfaneyl)benzamide]: the MIC in experiment [2] was less than 0.003 mg/L; in experiment [1], 1 mg/L (≈ 2.35 µM); in experiment [3], 0.0625 mg/L (≈ 0.147 µM); in experiment [4], 0.0313 mg/L (≈ 0.0735 µM).
Turning to `COc1c(Cl)cc(-c2nnc(NC(=O)c3ccc(SC(F)(F)F)cc3)o2)cc1Cl` [HSGN-265, N-(5-(3,5-dichloro-4-methoxyphenyl)-1,3,4-oxadiazol-2-yl)-4-((trifluoromethyl)thio)benzamide], the figures for the MIC in experiment [1], in experiment [3] and in experiment [4] were 2 mg/L (≈ 4.31 µM), 0.0625 mg/L (≈ 0.135 µM) and 0.0625 mg/L (≈ 0.135 µM), respectively.
For `CCCc1nnc(NC(=O)c2ccc(S(F)(F)(F)(F)F)cc2)o1` [HSGN-2142, 4-(pentafluoro-λ^6-sulfaneyl)-N-(5-propyl-1,3,4-oxadiazol-2-yl)benzamide], the minimum inhibitory concentration (MIC) in experiment [3] worked out at 1 mg/L (≈ 2.8 µM); in experiment [4], 0.5 mg/L (≈ 1.4 µM).
In the same order, the values of `O=C(Nc1nnc(C2CCCC2)o1)c1ccc(S(F)(F)(F)(F)F)cc1` [HSGN-2143, N-(5-cyclopentyl-1,3,4-oxadiazol-2-yl)-4-(pentafluoro-16-sulfaneyl)benzamide] are 2 mg/L (≈ 5.22 µM) and 1 mg/L (≈ 2.61 µM).
Molecule `CN(C)[C@@H]1C(O)=C(C(N)=O)C(=O)[C@@]2(O)C(O)=C3C(=O)c4c(O)cccc4[C@@](C)(O)[C@H]3C[C@@H]12` [Tetracycline, reference compound] gave an MIC in experiment [1] of 2 mg/L (≈ 4.5 µM).
